Data as given in patent US11000033B2, “Ketone or oxime compound, and herbicide” (NISSAN CHEMICAL CORPORATION, priority 2014, dated 2021).

Legend:
Format in all cases: in vivo
[1] = test system: Echinochloa oryzacola Vasing.; assay: Test Example 1: herbicidal activity, application before weed generation in submerged conditions (symbol A); details: application herbicide amount 320 g/ha
Method in brief: (§1)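 Weeds are sown into submerged alluvial soil alongside transplanted 2.5-leaf rice, and the compound, as an emulsion diluted to a set rate, is applied onto the water before emergence. Rating on the 0–5 herbicidal-ratio scale follows 3 weeks of greenhouse growth at 25–30 °C.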

Scirpus juncoides = assay: Test Example 1: herbicidal activity, application before weed generation in submerged conditions (symbol B); details: application herbicide amount 320 g/ha
Method in brief: as §1

[2] = test system: Echinochloa crus-galli var. crus-galli; assay: Test Example 3: herbicidal effect by foliage application, Wagner pot (symbol H); details: application herbicide amount 320 g/ha
Method in brief: (§2)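 Seeds sown in alluvial soil kept under 0.1–0.5 cm water, greenhouse 25–30 °C; 14 d growth. Leaves treated by small sprayer with water-diluted emulsion at a predetermined rate. Effect graded by set scale, 3 weeks.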

Leptochloa chinensis = assay: Test Example 3: herbicidal effect by foliage application, Wagner pot (symbol D); details: application herbicide amount 320 g/ha
Method in brief: as §2

Cyperus difformis = assay: Test Example 3: herbicidal effect by foliage application, Wagner pot (symbol E); details: application herbicide amount 320 g/ha
Method in brief: as §2

[3] = test system: directly sowed rice plant; assay: Test Example 3: effect on crop by foliage application, Wagner pot (symbol b); details: application herbicide amount 320 g/ha
Method in brief: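 Plants are raised from seed in flooded paddy conditions: water stands 0.1–0.5 cm over alluvial soil, and the pot is kept in a greenhouse at 25–30 °C. Species sown are barnyardgrass (E. crus-galli var. crus-galli), Leptochloa chinensis, Cyperus difformis and rice.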

Digitaria ciliaris = assay: Test Example 4: herbicidal effect by soil treatment (symbol F); details: application herbicide amount 320 g/ha
Method in brief: (§3)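 Seeds were sown in sterilized diluvial soil, covered with about 1.5 cm of soil, and the soil surface was sprayed with a water-diluted emulsion of the compound at a predetermined rate. Plants grew in a greenhouse at 25° C. to 30° C.; effects were scored visually 3 weeks after application.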

Alopecurus myosuroides [4] = assay: Test Example 4: herbicidal effect by soil treatment (symbol J); details: application herbicide amount 320 g/ha
Method in brief: as §3

corn = assay: Test Example 4: effect on crop by soil treatment (symbol c); details: application herbicide amount 320 g/ha
Method in brief: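 Grown at 25° C. to 30° C. in a greenhouse, the crops came from seed sown spot-wise in sterilized diluvial soil under roughly 1.5 cm of covering soil.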

rapeseed = assay: Test Example 4: effect on crop by soil treatment (symbol g); details: application herbicide amount 320 g/ha
Method in brief: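 The test used sterilized diluvial soil. Seed was set down in spots and overlaid with about 1.5 cm of soil before growth in a greenhouse kept at 25° C. to 30° C.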

Alopecurus myosuroides [5] = assay: Test Example 5: herbicidal effect by foliage application, plastic box (symbol J); details: 320 g/ha, 3 weeks after application
Method in brief: (§4)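 Effect is rated 3 weeks after a foliar spray of water-diluted emulsion concentrate at a predetermined herbicide amount. Plants had grown 14 days in a 25° C. to 30° C. greenhouse from seed in sterilized diluvial soil.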

Apera spica-venti = assay: Test Example 5: herbicidal effect by foliage application, plastic box (symbol L); details: 320 g/ha, 3 weeks after application
Method in brief: as §4

Abutilon theophrasti = assay: Test Example 5: herbicidal effect by foliage application, plastic box (symbol M); details: 320 g/ha, 3 weeks after application
Method in brief: as §4

Stellaria media = assay: Test Example 5: herbicidal effect by foliage application, plastic box (symbol P); details: 320 g/ha, 3 weeks after application
Method in brief: as §4

Galium spurium = assay: Test Example 5: herbicidal effect by foliage application, plastic box (symbol Q); details: 320 g/ha, 3 weeks after application
Method in brief: as §4

wheat = assay: Test Example 5: effect on crop by foliage application, plastic box (symbol e); details: 320 g/ha, 3 weeks after application
Method in brief: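 A greenhouse held between 25° C. and 30° C. was used to grow plants sown spot-wise, beneath ~1.5 cm of soil, in boxes of sterilized diluvial soil.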

Compound | Herbicidal effect grade, A: Echinochloa oryzacola Vasing. [1] | Herbicidal effect grade, B: Scirpus juncoides (Scirpus juncoides) | herbicidal effect on H (Echinochloa crus-galli var. crus-galli), grade 0-5 [2] | herbicidal effect on D (Leptochloa chinensis), grade 0-5 (Leptochloa chinensis) | herbicidal effect on E, grade 0-5 (Cyperus difformis) | effect on crop b (directly sowed rice plant), grade 0-5 [3] | F (Digitaria ciliaris) herbicidal effect grade (Digitaria ciliaris) | J (Alopecurus myosuroides) herbicidal effect grade (Alopecurus myosuroides [4]) | c (corn) effect on crop grade (corn) | g (rapeseed) effect on crop grade (rapeseed) | J: Alopecurus myosuroides, herbicidal effect grade (Alopecurus myosuroides [5]) | L: Apera spica-venti, herbicidal effect grade (Apera spica-venti) | M: Abutilon theophrasti, herbicidal effect grade (Abutilon theophrasti) | P: Stellaria media, herbicidal effect grade (Stellaria media) | Q: Galium spurium, herbicidal effect grade (Galium spurium) | e: wheat, effect on crop grade (wheat)
CC(CC1CC(O)=C(c2c(C)cc(C)cc2C)C1=O)=NOCC(C)O (centres unmarked) [1-027] | 4 (Herbicidal ratio of 70% or higher and lower than 90%) | 3 (Herbicidal ratio of 40% or higher and lower than 70%) | 5 (Herbicidal ratio of 90% or more (almost completely withered)) | 5 (Herbicidal ratio of 90% or more (almost completely withered)) | 5 (Herbicidal ratio of 90% or more (almost completely withered)) | 5 (Herbicidal ratio of 90% or more (almost completely withered)) | 5 (Herbicidal ratio of 90% or more (almost completely withered)) | 5 (Herbicidal ratio of 90% or more (almost completely withered)) | 4 (Herbicidal ratio of 70% or higher and lower than 90%) | 4 (Herbicidal ratio of 70% or higher and lower than 90%) | 5 (Herbicidal ratio of 90% or more (almost completely withered)) | 5 (Herbicidal ratio of 90% or more (almost completely withered)) | 2 (Herbicidal ratio of 20% or higher and lower than 40%) | 1 (Herbicidal ratio of 5% or higher and lower than 20%) | 3 (Herbicidal ratio of 40% or higher and lower than 70%) | 4 (Herbicidal ratio of 70% or higher and lower than 90%)
CC(CC1CC(O)=C(c2c(C)cc(C)cc2C)C1=O)=NOCC(F)(F)F (centres unmarked) [1-028] | 5 (Herbicidal ratio of 90% or more (almost completely withered)) | 5 (Herbicidal ratio of 90% or more (almost completely withered)) | 5 (Herbicidal ratio of 90% or more (almost completely withered)) | 5 (Herbicidal ratio of 90% or more (almost completely withered)) | 5 (Herbicidal ratio of 90% or more (almost completely withered)) | 5 (Herbicidal ratio of 90% or more (almost completely withered)) | 5 (Herbicidal ratio of 90% or more (almost completely withered)) | 5 (Herbicidal ratio of 90% or more (almost completely withered)) | 0 (Herbicidal ratio of 5% or lower (almost no effect)) | 4 (Herbicidal ratio of 70% or higher and lower than 90%) | 5 (Herbicidal ratio of 90% or more (almost completely withered)) | 5 (Herbicidal ratio of 90% or more (almost completely withered)) | 3 (Herbicidal ratio of 40% or higher and lower than 70%) | 3 (Herbicidal ratio of 40% or higher and lower than 70%) | 3 (Herbicidal ratio of 40% or higher and lower than 70%) | 3 (Herbicidal ratio of 40% or higher and lower than 70%)
CSCCON=C(C)CC1CC(O)=C(c2c(C)cc(C)cc2C)C1=O (centres unmarked) [1-029] | 4 (Herbicidal ratio of 70% or higher and lower than 90%) | 0 (Herbicidal ratio of 5% or lower (almost no effect)) | 5 (Herbicidal ratio of 90% or more (almost completely withered)) | 5 (Herbicidal ratio of 90% or more (almost completely withered)) | 4 (Herbicidal ratio of 70% or higher and lower than 90%) | 5 (Herbicidal ratio of 90% or more (almost completely withered)) | 5 (Herbicidal ratio of 90% or more (almost completely withered)) | 3 (Herbicidal ratio of 40% or higher and lower than 70%) | 0 (Herbicidal ratio of 5% or lower (almost no effect)) | 3 (Herbicidal ratio of 40% or higher and lower than 70%) | 5 (Herbicidal ratio of 90% or more (almost completely withered)) | 5 (Herbicidal ratio of 90% or more (almost completely withered)) | 1 (Herbicidal ratio of 5% or higher and lower than 20%) | 3 (Herbicidal ratio of 40% or higher and lower than 70%) | 3 (Herbicidal ratio of 40% or higher and lower than 70%) | 5 (Herbicidal ratio of 90% or more (almost completely withered))
CON=CC(C)(C)C1CC(O)=C(c2c(C)cc(C)cc2C)C1=O (centres unmarked) [1-030] | 2 (Herbicidal ratio of 20% or higher and lower than 40%) | 0 (Herbicidal ratio of 5% or lower (almost no effect)) | 5 (Herbicidal ratio of 90% or more (almost completely withered)) | 5 (Herbicidal ratio of 90% or more (almost completely withered)) | 3 (Herbicidal ratio of 40% or higher and lower than 70%) | 5 (Herbicidal ratio of 90% or more (almost completely withered)) | 3 (Herbicidal ratio of 40% or higher and lower than 70%) | 3 (Herbicidal ratio of 40% or higher and lower than 70%) | 0 (Herbicidal ratio of 5% or lower (almost no effect)) | 0 (Herbicidal ratio of 5% or lower (almost no effect)) | 4 (Herbicidal ratio of 70% or higher and lower than 90%) | 4 (Herbicidal ratio of 70% or higher and lower than 90%) | 0 (Herbicidal ratio of 5% or lower (almost no effect)) | 0 (Herbicidal ratio of 5% or lower (almost no effect)) | 0 (Herbicidal ratio of 5% or lower (almost no effect)) | 0 (Herbicidal ratio of 5% or lower (almost no effect))
CON=C(C)CC1CC(OCC#C[Si](C)(C)C)=C(c2c(C)cc(C)cc2C)C1=O (centres unmarked) [1-031] | 5 (Herbicidal ratio of 90% or more (almost completely withered)) | 4 (Herbicidal ratio of 70% or higher and lower than 90%) | 3 (Herbicidal ratio of 40% or higher and lower than 70%) | 4 (Herbicidal ratio of 70% or higher and lower than 90%) | 0 (Herbicidal ratio of 5% or lower (almost no effect)) | 5 (Herbicidal ratio of 90% or more (almost completely withered)) | 0 (Herbicidal ratio of 5% or lower (almost no effect)) | 0 (Herbicidal ratio of 5% or lower (almost no effect)) | 0 (Herbicidal ratio of 5% or lower (almost no effect)) | 3 (Herbicidal ratio of 40% or higher and lower than 70%) | 3 (Herbicidal ratio of 40% or higher and lower than 70%) | 0 (Herbicidal ratio of 5% or lower (almost no effect)) | 0 (Herbicidal ratio of 5% or lower (almost no effect)) | 0 (Herbicidal ratio of 5% or lower (almost no effect)) | 0 (Herbicidal ratio of 5% or lower (almost no effect)) | 0 (Herbicidal ratio of 5% or lower (almost no effect))
